Drawing on the supplement of paper PMC10307832, this text covers relative viability for one cell line.

What all share (assay): relative viability (nuclei count vs DMSO), 5 days (fraction); higher = more cells survive
Compound in assay [1]: CCC1=CN=CN=C1N2CCN(CC2)CC3=NC4=C(N3)C=C(C=C4)C(F)(F)F + Cc1cc(Nc2cc(N3CCN(C)CC3)nc(Sc3ccc(NC(=O)C4CC4)cc3)n2)n[nH]1 [Tozasertib] (partner 0.1 µM)
In a few lines:
(§1)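 Relative viability equals treated-well nuclei counts divided by vehicle-well nuclei counts. Counts came from 4× images of lung cancer cell lines grown in 1536-well plates for 5 days after pin-tool dosing on the day after seeding. Dosing used one drug alone or a fixed anchor-drug dose plus five library-drug doses (not always all listed) in √10 steps, and values are medians of duplicate plates.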

Compound in assay [2]: CCC1=CN=CN=C1N2CCN(CC2)CC3=NC4=C(N3)C=C(C=C4)C(F)(F)F + C[C@]1(O)C[C@@H](c2nc(-c3ccc4ccc(-c5ccccc5)nc4c3)c3c(N)nccn32)C1 [Linsitinib] (partner 1 µM)
In short, it runs like this:
as §1

Compound in assay [3]: CCn1c(-c2nonc2N)nc2cnc(Oc3cccc(NC(=O)c4ccc(OCCN5CCOCC5)cc4)c3)cc21 + Cc1nc(Nc2ncc(C(=O)Nc3c(C)cccc3Cl)s2)cc(N2CCN(CCO)CC2)n1 [Dasatinib] (partner 0.075 µM)
In short, it runs like this: as §1

Compound in assay [4]: CCn1c(-c2nonc2N)nc2cnc(Oc3cccc(NC(=O)c4ccc(OCCN5CCOCC5)cc4)c3)cc21 + COc1cccc2cc(-c3nc([C@H]4CC[C@H](C(=O)O)CC4)n4ncnc(N)c34)[nH]c12 [OSI-027] (partner 0.5 µM)
In a few lines: as §1

In the case of UMC-11, the relative viability in assay [1] (first compound 0.04 µM) worked out at 0.197; in assay [1] (first compound 0.1265 µM) it was 0.216; in assay [1] (first compound 0.4 µM), 0.216; in assay [1] (first compound 1.265 µM), 0.204; in assay [1] (first compound 4 µM) it was 0.214; in assay [2] (first compound 0.04 µM), 1.03. Besides, the relative viability amounted to 1.02 in assay [2] (first compound 0.1265 µM); 1.03 in assay [2] (first compound 0.4 µM); 0.958 in assay [2] (first compound 1.265 µM); 0.944 in assay [2] (first compound 4 µM); 0.37 in assay [3] (first compound 0.04 µM); 0.415 in assay [3] (first compound 0.1265 µM). Moreover, the relative viability in assay [3] (first compound 0.4 µM) was 0.337; in assay [3] (first compound 1.265 µM), 0.214; in assay [3] (first compound 4 µM), 0.182; in assay [4] (first compound 0.04 µM), 0.44; in assay [4] (first compound 0.1265 µM), 0.41; in assay [4] (first compound 0.4 µM), 0.355. The relative viability in assay [4] (first compound 1.265 µM) stood at 0.208; in assay [4] (first compound 4 µM), 0.179.
